Our source for the IC50, CC50 and AC50 values is ChEMBL document CHEMBL1201862, “PubChem BioAssay data set” (2004).

For data set [1], the target named is Glucose-6-phosphate 1-dehydrogenase (Homo sapiens, UniProt P11413). Description: inhibition of Homo sapiens G6PD, dose series – biochemical, fluorescence, selectivity assay for P. falciparum G6PD inhibitor project, dose response (AID 504792). The class given is functional.
Data set [2] concerns the target T1, Rac GTPase-activating protein 1 (Homo sapiens, UniProt Q9H0H5).
T1 sequence (Q9H0H5 whole entry): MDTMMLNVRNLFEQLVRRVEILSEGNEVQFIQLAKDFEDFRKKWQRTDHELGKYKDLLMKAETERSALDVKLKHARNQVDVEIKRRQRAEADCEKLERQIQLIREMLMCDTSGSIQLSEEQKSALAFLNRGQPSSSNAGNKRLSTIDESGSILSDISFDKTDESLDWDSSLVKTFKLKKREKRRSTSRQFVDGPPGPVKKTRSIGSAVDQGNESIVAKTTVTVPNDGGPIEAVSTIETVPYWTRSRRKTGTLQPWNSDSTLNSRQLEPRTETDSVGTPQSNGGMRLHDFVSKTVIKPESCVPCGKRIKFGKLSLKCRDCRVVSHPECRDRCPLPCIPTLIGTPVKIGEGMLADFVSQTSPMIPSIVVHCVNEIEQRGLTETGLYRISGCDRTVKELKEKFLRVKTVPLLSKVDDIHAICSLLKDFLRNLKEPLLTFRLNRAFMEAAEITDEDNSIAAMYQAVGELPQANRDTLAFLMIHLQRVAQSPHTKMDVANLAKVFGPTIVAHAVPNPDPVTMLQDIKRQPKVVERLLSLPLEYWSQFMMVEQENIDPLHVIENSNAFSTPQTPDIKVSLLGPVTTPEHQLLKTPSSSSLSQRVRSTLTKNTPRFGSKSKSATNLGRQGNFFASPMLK
Description: blockers of MgcRacGAP-driven Rac1 GTP hydrolysis – biochemical, ADP Hunter fluorescence, primary and confirmatory, confirmation (AID 624330). The class given is functional.

A short description of data set [3]: viability loss in HeLa cells – cytotoxicity control for MgcRacGAP inhibitor project, dose response (AID 624300). The class given is functional.
The next data set deals with T2, Leucine aminopeptidase (Plasmodium falciparum 3D7, UniProt Q8IL11).
T2 sequence (Q8IL11 whole entry): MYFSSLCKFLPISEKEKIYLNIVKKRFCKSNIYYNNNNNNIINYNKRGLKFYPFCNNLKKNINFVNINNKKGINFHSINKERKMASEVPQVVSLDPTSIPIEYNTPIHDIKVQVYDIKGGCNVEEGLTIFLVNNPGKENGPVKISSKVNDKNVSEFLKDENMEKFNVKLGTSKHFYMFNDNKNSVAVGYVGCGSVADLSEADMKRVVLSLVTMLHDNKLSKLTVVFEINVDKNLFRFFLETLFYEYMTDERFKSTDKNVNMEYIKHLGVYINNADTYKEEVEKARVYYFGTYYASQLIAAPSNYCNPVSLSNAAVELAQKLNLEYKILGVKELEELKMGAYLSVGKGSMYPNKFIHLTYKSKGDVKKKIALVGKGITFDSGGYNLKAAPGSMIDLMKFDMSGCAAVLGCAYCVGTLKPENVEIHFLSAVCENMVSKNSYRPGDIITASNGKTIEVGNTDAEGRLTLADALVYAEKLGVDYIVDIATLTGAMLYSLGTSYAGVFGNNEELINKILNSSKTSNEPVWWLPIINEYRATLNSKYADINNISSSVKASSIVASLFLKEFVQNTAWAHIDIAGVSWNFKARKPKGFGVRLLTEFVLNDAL
Description: P. falciparum M17LAP inhibitors, primary screen, biochemical, fluorogenic H-Leu-NHMec substrate, 1536-well (AID 1619). Format: functional.

Data set [4] is described as follows: A549 cell cytotoxicity, dose response, cytotoxicity control, plate reader, cherry-pick, antagonist series (AID 743412). The class given is functional, cell-based.
The subject of another data set is HEK293. Description: EBV LMP1 TES2 canonical NF-kB signalling blockers – cell-based, HEK293, luciferase, cherry-pick, dose response (AID 588343). The class given is functional. As to conditions: Homo sapiens.
A further data set concerns the target Cytochrome P450 3A4 (Homo sapiens, UniProt P08684).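 Further: CYP3A4 tested as one member of a cytochrome P450 panel screen.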
In a further data set the target is Cytochrome P450 2C9 (Homo sapiens, UniProt P11712).
Chain of Cytochrome P450 2C9 (P11712 whole entry): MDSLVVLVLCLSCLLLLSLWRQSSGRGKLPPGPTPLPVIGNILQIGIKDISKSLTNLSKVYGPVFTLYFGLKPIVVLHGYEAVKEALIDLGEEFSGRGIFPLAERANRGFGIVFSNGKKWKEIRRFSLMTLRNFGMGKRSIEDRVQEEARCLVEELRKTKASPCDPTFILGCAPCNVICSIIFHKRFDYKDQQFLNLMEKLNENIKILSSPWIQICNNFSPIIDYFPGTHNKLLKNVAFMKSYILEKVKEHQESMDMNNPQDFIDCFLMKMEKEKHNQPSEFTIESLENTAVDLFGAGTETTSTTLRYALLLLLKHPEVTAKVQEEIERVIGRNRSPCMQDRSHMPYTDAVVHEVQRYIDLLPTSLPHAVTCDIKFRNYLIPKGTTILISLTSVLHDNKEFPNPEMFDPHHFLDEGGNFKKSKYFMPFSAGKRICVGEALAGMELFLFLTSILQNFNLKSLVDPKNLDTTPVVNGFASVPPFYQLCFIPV
The target of data set [5] is T3, Histone-lysine N-methyltransferase NSD2 (Homo sapiens, UniProt O96028).
T3 sequence (O96028 whole entry): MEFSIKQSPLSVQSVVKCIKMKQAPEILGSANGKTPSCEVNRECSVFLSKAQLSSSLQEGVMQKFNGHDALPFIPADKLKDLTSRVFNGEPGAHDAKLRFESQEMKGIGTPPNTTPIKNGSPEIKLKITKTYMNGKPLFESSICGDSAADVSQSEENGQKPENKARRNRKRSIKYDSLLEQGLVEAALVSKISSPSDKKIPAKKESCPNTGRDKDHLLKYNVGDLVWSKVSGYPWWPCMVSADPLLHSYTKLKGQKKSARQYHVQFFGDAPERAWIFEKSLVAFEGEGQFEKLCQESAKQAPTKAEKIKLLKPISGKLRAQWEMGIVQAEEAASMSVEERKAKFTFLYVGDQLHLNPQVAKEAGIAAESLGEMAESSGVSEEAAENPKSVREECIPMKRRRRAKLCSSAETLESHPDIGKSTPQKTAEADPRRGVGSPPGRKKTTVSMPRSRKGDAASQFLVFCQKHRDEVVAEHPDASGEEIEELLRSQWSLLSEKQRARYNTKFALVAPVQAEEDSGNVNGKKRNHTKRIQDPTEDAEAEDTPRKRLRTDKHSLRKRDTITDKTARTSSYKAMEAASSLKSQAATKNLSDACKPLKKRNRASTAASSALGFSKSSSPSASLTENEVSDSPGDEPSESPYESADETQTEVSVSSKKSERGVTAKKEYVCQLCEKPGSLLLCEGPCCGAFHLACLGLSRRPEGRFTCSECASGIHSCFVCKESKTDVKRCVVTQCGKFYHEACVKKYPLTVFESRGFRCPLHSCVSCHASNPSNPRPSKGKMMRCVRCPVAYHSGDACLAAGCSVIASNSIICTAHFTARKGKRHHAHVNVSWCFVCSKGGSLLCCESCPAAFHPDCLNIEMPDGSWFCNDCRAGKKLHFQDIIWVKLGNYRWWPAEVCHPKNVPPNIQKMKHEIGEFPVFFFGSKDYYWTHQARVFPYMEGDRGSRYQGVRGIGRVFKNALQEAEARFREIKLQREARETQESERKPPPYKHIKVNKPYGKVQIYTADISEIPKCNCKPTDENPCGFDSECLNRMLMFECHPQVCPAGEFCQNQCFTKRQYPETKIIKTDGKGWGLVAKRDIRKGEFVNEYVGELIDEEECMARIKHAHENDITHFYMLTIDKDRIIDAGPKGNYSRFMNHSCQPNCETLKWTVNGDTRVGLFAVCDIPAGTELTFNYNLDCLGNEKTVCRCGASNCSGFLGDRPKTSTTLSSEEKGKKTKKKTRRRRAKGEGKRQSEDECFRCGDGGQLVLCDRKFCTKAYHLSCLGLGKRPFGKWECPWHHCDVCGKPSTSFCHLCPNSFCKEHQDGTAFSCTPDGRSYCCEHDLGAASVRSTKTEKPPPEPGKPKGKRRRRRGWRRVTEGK
Format: biochemical.

Data set [6] in a line: growth inhibition of yeast DHODH-expressing 3D7 parasites – SYBR Green, dry powder samples, dose response (AID 1159570).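 Further: parasite growth measured after 72 hours of compound exposure.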 Format: functional, cell-based.
Data set [7] in a line: Dd2 malaria parasite growth inhibition potency – SYBR Green, dry powder samples, dose response (AID 1159566).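 Further: potency for growth inhibition with lower SYBR green DNA signal.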 Format: functional, cell-based.
Data set [8] in a line: P. falciparum Dd2 growth inhibitors, dose response, SYBR Green, cherry-picked samples (AID 1159567). The class given is functional, cell-based.
A short description of data set [9]: growth inhibition of PfATP4-mutant resistant parasites – NITD609-resistant line, SYBR Green, dry powder, dose response (AID 1159571).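 Further: parasites synchronized at ring stage by sorbitol before testing.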 Format: functional, cell-based.
The target in the next data set is T4, Cytochrome P450 1A2 (Homo sapiens, UniProt P05177).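 Further: PubChem cytochrome P450 panel assay, CYP1A2 panel member.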
T4 sequence (P05177 whole entry): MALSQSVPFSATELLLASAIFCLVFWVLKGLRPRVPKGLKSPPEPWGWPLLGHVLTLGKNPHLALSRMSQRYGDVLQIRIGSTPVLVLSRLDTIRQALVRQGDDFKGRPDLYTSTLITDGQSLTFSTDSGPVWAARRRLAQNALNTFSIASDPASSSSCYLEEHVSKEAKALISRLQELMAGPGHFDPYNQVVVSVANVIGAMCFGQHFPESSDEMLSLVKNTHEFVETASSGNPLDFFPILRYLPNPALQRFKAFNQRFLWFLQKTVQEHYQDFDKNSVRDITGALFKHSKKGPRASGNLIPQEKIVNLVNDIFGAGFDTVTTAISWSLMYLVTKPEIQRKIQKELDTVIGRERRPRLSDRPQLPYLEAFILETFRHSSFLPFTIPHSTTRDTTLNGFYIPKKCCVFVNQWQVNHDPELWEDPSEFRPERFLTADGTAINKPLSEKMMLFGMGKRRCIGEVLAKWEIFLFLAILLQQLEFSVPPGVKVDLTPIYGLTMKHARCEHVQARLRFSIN

For a further data set, the target named is Cytochrome P450 2C19 (Homo sapiens, UniProt P33261). Description: Cytochrome panel assay with activity outcomes. Panel member name: p450-cyp2c19 Compounds with AC50 equal or less than 10 uM are considered active. Format: functional. As to conditions: read-out: AC50.
Chain of Cytochrome P450 2C19 (P33261 whole entry): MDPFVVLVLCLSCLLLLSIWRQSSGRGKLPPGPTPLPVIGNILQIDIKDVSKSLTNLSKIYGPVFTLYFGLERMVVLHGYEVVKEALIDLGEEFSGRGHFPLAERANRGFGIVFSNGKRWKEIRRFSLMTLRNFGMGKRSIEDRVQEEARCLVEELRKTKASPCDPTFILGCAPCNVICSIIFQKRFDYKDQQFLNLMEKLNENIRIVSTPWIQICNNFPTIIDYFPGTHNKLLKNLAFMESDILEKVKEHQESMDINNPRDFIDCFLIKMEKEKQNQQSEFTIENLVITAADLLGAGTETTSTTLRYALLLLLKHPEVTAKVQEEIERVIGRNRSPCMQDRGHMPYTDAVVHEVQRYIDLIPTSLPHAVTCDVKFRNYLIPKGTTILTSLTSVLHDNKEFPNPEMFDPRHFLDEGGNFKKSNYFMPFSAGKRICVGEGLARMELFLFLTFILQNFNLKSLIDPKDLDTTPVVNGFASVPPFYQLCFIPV

Active and inactive are the calls of the source.

Chain of Glucose-6-phosphate 1-dehydrogenase (P11413 whole entry): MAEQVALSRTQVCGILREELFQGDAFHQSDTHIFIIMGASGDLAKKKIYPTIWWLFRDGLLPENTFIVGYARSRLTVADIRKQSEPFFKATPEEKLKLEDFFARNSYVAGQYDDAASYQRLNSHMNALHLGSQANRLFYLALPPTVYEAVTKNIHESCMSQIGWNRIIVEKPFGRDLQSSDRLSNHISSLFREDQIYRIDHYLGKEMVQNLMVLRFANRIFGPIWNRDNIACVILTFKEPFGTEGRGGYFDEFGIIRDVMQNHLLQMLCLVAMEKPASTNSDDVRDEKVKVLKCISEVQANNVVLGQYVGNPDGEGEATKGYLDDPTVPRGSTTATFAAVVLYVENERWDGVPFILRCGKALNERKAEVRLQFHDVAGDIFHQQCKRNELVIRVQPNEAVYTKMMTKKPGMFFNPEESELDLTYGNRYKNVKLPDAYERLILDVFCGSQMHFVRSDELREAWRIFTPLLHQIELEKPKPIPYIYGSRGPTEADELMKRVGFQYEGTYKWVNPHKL
Chain of Cytochrome P450 3A4 (P08684 whole entry): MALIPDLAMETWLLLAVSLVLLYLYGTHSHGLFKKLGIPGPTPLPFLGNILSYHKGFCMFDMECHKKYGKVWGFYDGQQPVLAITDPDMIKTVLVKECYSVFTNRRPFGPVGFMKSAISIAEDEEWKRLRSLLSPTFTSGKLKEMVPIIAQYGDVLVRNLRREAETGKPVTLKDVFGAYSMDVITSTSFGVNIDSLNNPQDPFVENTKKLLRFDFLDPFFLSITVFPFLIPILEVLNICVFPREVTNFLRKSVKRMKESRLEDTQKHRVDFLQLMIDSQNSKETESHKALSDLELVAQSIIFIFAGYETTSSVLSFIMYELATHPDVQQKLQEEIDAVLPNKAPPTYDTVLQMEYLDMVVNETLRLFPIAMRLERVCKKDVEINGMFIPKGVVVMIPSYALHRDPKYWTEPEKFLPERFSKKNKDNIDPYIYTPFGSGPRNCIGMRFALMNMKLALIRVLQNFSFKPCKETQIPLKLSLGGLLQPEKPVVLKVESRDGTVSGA

For the compound `O=C(Nc1ccccc1C(=O)N/N=C/c1ccco1)c1ccccc1Cl`, the IC50 in [1] was > 80 µM (inactive).
Consider `O=C(CSc1nc2cc(Cl)ccc2s1)c1ccco1`, for which the IC50 in [1] was > 80 µM (inactive).
Consider `COc1cc(CNCCc2ccc3c(c2)OCO3)cc(OC)c1OC`, for which the 50% inhibitory concentration (IC50) in data set [2] is 127 µM (active). In addition, in data set [3], the 50% cytotoxic concentration (CC50) is 100 µM (active).
Regarding `Cc1ccc(C(=O)Nc2nnc(S(=O)(=O)N3CCC(C)CC3)s2)cc1`, the IC50 in data set [1] is > 80 µM (inactive).
Turning to `Cc1[nH]c2ccccc2c1/C=N/Nc1nncn1N`, the figures for the IC50 in data set [2] and in [1] were 63.7 µM (active) and 44.1 µM (inactive), respectively.
As to `Cc1ccc(C(=O)CSc2nnc[nH]2)cc1`, the IC50 at Leucine aminopeptidase was 50.5 µM (active).
As for `Cn1nnnc1SCC(=O)N1CCN(C(=O)c2ccco2)CC1`, in data set [4], the AC50 is > 52 µM (inactive).
For the compound `COc1ccc(C(c2c(C)n(C)n(-c3ccccc3)c2=O)c2c(C)n(C)n(-c3ccccc3)c2=O)c(OC)c1OC`, the AC50 in the data set with HEK293 is 344 µM (active).
For the compound `O=C1C(C2=NC(C(=O)O)C3C(=O)N(c4ccc(Cl)cc4)C(=O)C23)=C(O)c2ccccc21` (stereo not drawn), the IC50 on Leucine aminopeptidase is 71.6 µM (active).
As for `Oc1ccc2oc3c(c2c1)CCCC3`, the figures for the AC50 on Cytochrome P450 3A4 and at Cytochrome P450 2C9 were 22.4 µM (inconclusive) and “inconclusive”, respectively.
Turning to `Cc1cc(SCC(=O)c2ccc(O)c(O)c2)nc2ccccc12`, in data set [5], the half-maximal activity concentration (AC50) is 6.7 µM (active). Besides, the IC50 in data set [2] was 58.2 µM (active). Besides, the CC50 in data set [3] is 100 µM (active).
Consider `COc1cccc(CN2CC3(CCN(Cc4ccccn4)CC3)c3c([nH]c4cc(OC)ccc34)[C@@H]2CO)c1`, for which the AC50 is 1.71 µM (active) in [6], 1.79 µM (active) in data set [7], 1.96 µM (active) in [8] and 2.04 µM (active) in [9].
In the case of `O=C(N/C(=C/c1ccco1)C(=O)N1CCCCCC1)c1cccs1`, the AC50 at Cytochrome P450 1A2 is 17.8 µM (inconclusive); at Cytochrome P450 2C19 it was 3.98 µM (inconclusive); at Cytochrome P450 2C9, “inconclusive”.

In general, IC50 refers to the point on the concentration scale where inhibition reaches its midpoint. In general, CC50 refers to the concentration giving 50% cytotoxicity. What is called AC50 is the midpoint of the concentration-response curve, whichever way the signal moves.
